Measurements as given in US5559127A, “Fibrinogen receptor antagonists” (Merck & Co., Inc., priority 1995, dated 1996).

System: human platelets
Assay: ADP-stimulated platelet aggregation assay (inhibition of aggregation of gel-filtered human platelets)
Assay type: cell-based
Conditions: fibrinogen 100 μg/ml, Ca2+ 1 mM, 10 uM ADP, 37° C., read-out: IC50 (dose inhibiting aggregation by 50% relative to a control lacking the compound)
Procedure: The ADP-stimulated platelet aggregation assay was used to determine IC50 inhibition associated with compounds of the invention.
Human platelets were isolated from fresh blood, collected into acid citrate/dextrose by differential centrifugation followed by gel filtration on Sepharose 2B in divalent ion-free Tyrode's buffer (pH 7.4) containing 2% bovine serum albumin. Platelet aggregation was measured at 37° C. in a a Chronolog aggregometer. The reaction mixture contained gel-filtered human platelets (2×10^8 […]), fibrinogen (100 μg/ml), Ca^2+ (1 mM), and the compound to be tested. Aggregation was initiated by adding 10 uM ADP 1 minute after the other components had been added. The reaction was allowed to proceed for at least 2 minutes. The extent of inhibition of aggregation was expressed as the percentage of the rate of aggregation observed in the absence of inhibitor. The IC50 is the dose of a particular compound inhibiting aggregation by 50% relative to a control lacking the compound.

Compound	IC50 [nM]
CCCCS(=O)(=O)N[C@@H](Cc1ccc2oc(CCCC3CCNCC3)cc2c1)C(=O)O [2(S)-(Butylsulfonylamino)-3-{5-[2'-3-(piperidin-4-ylpropyl)benzofuranyl]}propionic acid]	200
CCCCS(=O)(=O)N[C@@H](Cc1ccc2oc(C(=O)NCC3CCNCC3)cc2c1)C(=O)O [2(S)-(Butylsulfonylamino)-3-{5-[2'-(4-piperidinylmethyl)aminocarbonyl]benzofuranyl}propionic acid]	6600
O=C(N[C@@H](CNC(=O)c1ccc2cc(CCC3CCNCC3)sc2c1)C(=O)O)OCc1ccccc1 [2-[2-(Piperidin-4-yl)ethyl]benzothiophene-6-N-[3-(2(S)-N-carbobenzyloxyaminopropionic acid)]carboxamide]	67

Now those with a lower IC50, led by results:

IC50 [nM]	Compound
22	CCCCS(=O)(=O)N[C@@H](CNC(=O)c1ccc2[nH]c(CCC3CCNCC3)nc2c1)C(=O)O [2-[2-(4-Piperidinyl)ethyl]benzimidazole-5-carbonyl-[2(S)-butylsulfonylamino]-β-alanine]
36	CCCCS(=O)(=O)N[C@@H](CNC(=O)c1ccc2cc(CCC3CCNCC3)sc2c1)C(=O)O [2-[2-(Piperidin-4-yl)ethyl]benzothiophene-6-N-[3-(2(S)-butylsulfonylaminopropionic acid)]carboxamide]
12	O=C(NC[C@H](NS(=O)(=O)c1ccccc1)C(=O)O)c1cc2cc(OCCC3CCNCC3)ccc2[nH]1 [5-[2-(4-Piperidinylethyl)oxy]-2-indolecarbonyl-2(S)-phenylsulfonyl0amino-β-alanine]
